# Entries after “also recorded” stand apart in the source; their conditions may differ.
# System: panel of seven fluorescent strains
# Test: not given
# Conditions: cultures unable to grow on a given carbon source, BSA added
row,Compound,serving as an alternative carbon source (false positive growth)
1,bovine serum albumin [BSA],caused no false positives

# System: Herbaspirillum frisingense (Hf-GFP)
# Test: Hf-GFP facilitation screen on kChip (Hf-GFP yield in co-culture with soil isolate compositions, single carbon sources)
# Assay type: cell-based
# Conditions: single carbon source 0.5% w/v, by 72 hours
# Description: Microbial cultures were prepared as described in the “Microbial culture input preparation” section above. The culture medium for H. frisingense revival from a glycerol stock also included the selection antibiotic kanamycin (30 μg/mL). Six carbon sources (galactose, glucose, fructose, raffinose, lactose, sucrose) were prepared as described in the “Carbon source input preparation” section above to a concentration of 2% w/v, which were added 1:1 with MM+0.05% w/v BSA to produce 1×MM+1% w/v carbon source (six unique MM each with one carbon source). A plate of 16 color codes were also prepared in advance at 50 μM total concentration (“kChip input preprocessing” section above).
# At the onset of the screen, all cultures were washed three times and resuspended in MM+0.05% w/v BSA (no carbon source) and normalized to an initial OD600=0.08. A “droplet plate” (96-well plate) was prepared whereby each of 16 wells, corresponding to the 16 input conditions of the screen, received the following four elements: (1) 50 μL MM+1% w/v carbon source; (2) 25 μL unique soil isolate at OD600=0.08 (or a no-isolate control or a negative control); (3) 25 μL Hf-GFP at OD600=0.08; and (4) 2 μL 50 μM color code. The two controls, a negative control and a no-isolate control, were in principle the same (just different color codes), with the negative control used to measure Hf-GFP monocultures and the no-isolate used to calculate isolate-mediated differences. The carbon source and color code were mixed in advance, though the cultures were added just before making droplets to load on a kChip.
# After emulsification, each 1-nL droplet contained the following: (1) 0.5% w/v carbon source; (2) soil isolate at OD600=0.02 (˜20 cells) (or no-isolate control or negative control); (3) Hf-GFP at OD600=0.02 (˜20 cells); and (4) a set of color code (total concentration of all three fluorescent dyes at 1 μM). Droplets were prepared for each carbon source at a time and loaded onto a k={1:7;19} Chip, i.e. first all sucrose-containing droplets were prepared and loaded onto the first kChip in the screen, then all lactose-containing droplets were prepared and loaded onto the second kChip, and so forth. Because there were only 16 inputs in total, there were no instances where all inputs were unique in k=19 microwells. The instant analysis was focused upon the k=1-7 microwells, and specifically on instances where all droplets within a given microwell were unique. Throughput tradeoffs associated with this number of inputs and k values are discussed below.
# After loading droplets, the kChip was imaged to read the color-code of each droplet (“pre-merge” scan) and droplet sets were merged within their corresponding microwells (“Droplet making and kChip loading” section above). The post-merge communities contained the following: (1) 0.5% w/v carbon source; (2) k=1, 2, 3, 4, 5, 6, 7, or 19 soil isolates collectively at OD600=0.02 (or no-isolate control or negative control); (3) Hf-GFP at OD600=0.02; and (4) 1 μM mixed color codes (no longer serving a purpose). […]
row,Compound,Hf-GFP monoculture growth/yield on the carbon source
1,OC[C@H]1O[C@@](CO)(O[C@H]2O[C@H](CO)[C@@H](O)[C@H](O)[C@H]2O)[C@@H](O)[C@@H]1O [sucrose],indistinguishable from background; also recorded: undetectably low
2,O=C[C@H](O)[C@@H](O)[C@@H](O)[C@H](O)CO [galactose],high yield
3,OC[C@H]1O[C@H](OC[C@H]2O[C@H](O[C@]3(CO)O[C@H](CO)[C@@H](O)[C@@H]3O)[C@H](O)[C@@H](O)[C@@H]2O)[C@H](O)[C@@H](O)[C@H]1O [raffinose],low
4,OC[C@H]1O[C@@H](O[C@H]2[C@H](O)[C@@H](O)C(O)O[C@@H]2CO)[C@H](O)[C@@H](O)[C@H]1O (stereo partly drawn) [lactose],low
5,O=C(CO)[C@@H](O)[C@H](O)[C@H](O)CO [fructose],low

# Source: US12577526B2, “Massively parallel on-chip construction of synthetic microbial communities” (MASSACHUSETTS INSTITUTE OF TECHNOLOGY, priority 2019, dated 2026)
